Tests used:
[1] = Inhibition of alpha-glucosidase (unknown origin); design: species or system Homo sapiens
[2] = test system: HEK293; experiment: Cytotoxicity against HEK293 cells assessed as reduction in cell viability; assay type: cell-based; conditions: Homo sapiens

Row | SMILES | IC50 [1] [µM] | IC50 [2] [µM]
1 | COC(=O)c1c(C)cc(OC(=O)c2c(C)cc(O)c(/C=N/NC(=O)COc3ccc(C)cc3)c2O)c(C)c1O | 54.7 | > 100
2 | COC(=O)c1c(C)cc(OC(=O)c2c(C)cc(O)c(/C=N/NC(=O)COc3ccccc3C)c2O)c(C)c1O | 53.3 | > 100
3 | COC(=O)c1c(C)cc(OC(=O)c2c(C)cc(O)c(/C=N/NC(=O)COc3ccc(Br)cc3)c2O)c(C)c1O | 17.3 | > 100
4 | COC(=O)c1c(C)cc(OC(=O)c2c(C)cc(O)c(/C=N/NC(=O)CNc3ccc(C)cc3)c2O)c(C)c1O | 31.5 | > 100
5 | COC(=O)c1c(C)cc(OC(=O)c2c(C)cc(O)c(/C=N/NC(=O)COc3ccc4ccccc4c3)c2O)c(C)c1O | 18.9 | 52.7
6 | COC(=O)c1c(C)cc(OC(=O)c2c(C)cc(O)c(/C=N/NC(=O)Cc3ccccc3)c2O)c(C)c1O | 6.67 | > 100
7 | COC(=O)c1c(C)cc(OC(=O)c2c(C)cc(O)c(/C=N/NC(=O)COc3cc(C)ccc3C(C)C)c2O)c(C)c1O | 28.1 | > 100
8 | COC(=O)c1c(C)cc(OC(=O)c2c(C)cc(O)c(C=O)c2O)c(C)c1O [ATRANORIN] | > 100 | –
9 | COc1cccc2c1C(=O)c1c(O)c3c(c(O)c1C2=O)C[C@@](O)(C(=O)CO)C[C@@H]3O[C@H]1C[C@H](N)[C@H](O)[C@H](C)O1 [DOXORUBICIN] | – | 7.92

The next lines start with results.

Row | IC50 [1] [µM] | SMILES | IC50 [2] [µM]
10 | 9.12 | COC(=O)c1c(C)cc(OC(=O)c2c(C)cc(O)c(/C=N/NC(=O)CSc3nc4ccccc4s3)c2O)c(C)c1O | 70.1
11 | 40.6 | COC(=O)c1c(C)cc(OC(=O)c2c(C)cc(O)c(/C=N/NC(=O)COc3cccc(C)c3)c2O)c(C)c1O | > 100
12 | 9.91 | COC(=O)c1c(C)cc(OC(=O)c2c(C)cc(O)c(/C=N/NC(=O)c3cc(Cl)ccc3O)c2O)c(C)c1O | 63.2
13 | 39.7 | COC(=O)c1c(C)cc(OC(=O)c2c(C)cc(O)c(/C=N/NC(=O)COc3cc4ccccc4o3)c2O)c(C)c1O | 84.4
14 | 41.2 | COC(=O)c1c(C)cc(OC(=O)c2c(C)cc(O)c(/C=N/NC(=O)c3cc(I)ccc3O)c2O)c(C)c1O | 94.1
15 | 93.6 | C[C@H]1O[C@H](O[C@H]2[C@H](O)[C@@H](O)[C@@H](O[C@H]3[C@H](O)[C@@H](O)C(O)O[C@@H]3CO)O[C@@H]2CO)[C@H](O)[C@@H](O)[C@@H]1N[C@H]1C=C(CO)[C@@H](O)[C@H](O)[C@H]1O (some centres not stated) [ACARBOSE] | –

From ChEMBL document CHEMBL4725326, “Synthesis, α-glucosidase inhibition, and molecular docking studies of novel N-substituted hydrazide derivatives of atranorin as antidiabetic agents” (Bioorg Med Chem Lett, 2020)
